Measurements taken from BigSolDB 2.1.

Settings: 298.15 K

O=C(C(=O)c1ccccc1)c1ccccc1
Settings | solubility (mole fraction)
in 2,2,2-trifluoroethanol | 0.0352
in 2-butanone | 0.184
in 2-methyl-1-pentanol | 0.0139
in 3,7-dimethyl-1-octanol | 0.0173
in DMSO | 0.0228
in acetone | 0.16
in acetonitrile | 0.0635
in butyronitrile | 0.151
in chlorobenzene | 0.201
in cyclohexanone | 0.241
in diethyl ether | 0.0674
in diisopropyl ether | 0.0309
in methyl acetate | 0.152
in n-decane | 0.00855
in n-decanol | 0.0212
in n-hexadecane | 0.0118
in propionitrile | 0.129
in propylene carbonate | 0.094
in tert-butanol | 0.0106
